Data from patent publication US20050130909A1 (priority 2002, published 2005).
Values joined by “and” are separate entries in the source; they are usually repeats but may differ in a detail not shown here. Equal values may be shown once.

Tests used:
dog albumin = dog albumin (Canis lupus familiaris, UniProt P49822); test: Protein binding by ITC; details: pH 7.4
[1] = Pharmacokinetics and renal excretion in healthy subjects; type: in vivo, human
Experimental: Blood samples were drawn into heparinized tubes and centrifuged. Plasma was separated and stored frozen at −20° C. until time of assay. Plasma and urine samples were assayed for dalbavancin using validated LC/MS/MS methods. […] The peak concentration (Cmax) values were obtained directly from the observed data. The area under the plasma concentration-time curve (AUC) was calculated using the linear trapezoidal rule. Clearance (CL) was computed as dose/AUC. The elimination half life (t1/2) was estimated by linear regression of the log-linear portion of the log concentration versus time curve. Estimates of the volume of distribution (VZ) was calculated using the regression parameters, while the volume of distribution at steady state (Vss) was calculated from the area under the first moment curve (AUMC) multiplied by the dose and divided by AUC. The cumulative amount of dalbavancin excreted in urine was determined as the integrand of the urine excretion rate (AURC). CLR, or renal clearance, was calculated as the ratio: CLR=AURC/AUC.

Gram-positive pathogen = test: Phase II SSTI trial: microbiological response, all Gram-positive pathogens; type: in vivo, human; details: for Success rate by pathogen: Total organisms: MITT at FU; for Microbiologic success rate (by patient): MITT population; for Eradication/presumed eradication rate, all organisms: microbiologically-evaluable population at FU
Experimental: This randomized, controlled study evaluated the safety and efficacy of two dose regimens of dalbavancin.
There were 62 patients randomized into the study; all received at least one dose of study medication. Four study populations were evaluated for safety and efficacy and were defined as follows: The intent-to-treat (ITT) population included all patients who received at least one dose of study drug (all randomized study subjects).
Microbiological outcome, a secondary efficacy variable, was assessed in the subpopulation of patients who had microbiologically documented SSTI (i.e., at least one identified baseline pathogen). A microbiologic response was assessed for each Gram-positive pathogen identified at baseline (i.e., eradication, presumed eradication, persistence, presumed persistence). For patients for whom follow-up cultures were not performed, the microbiologic responses for baseline pathogens were presumed on the basis of the clinical response. Microbiologic response by patient at the EOT and FU visits was graded as success (i.e., all Gram-positive organisms eradicated or presumed eradicated) or failure (i.e., at least one Gram-positive organism persisted or presumed to have persisted, multiple pathogens with partial eradication). At both the EOT and FU visits, colonization and superinfection were assessed. At the FU visit, a patient's bacteriological response could also include recurrence.

streptococci = test: In vitro antibacterial activity; type: cell-based; details: including penicillin-resistant strains
HSA = HSA (Homo sapiens, UniProt P02768); test: MALDI-TOF mass spectrometry of protein-dalbavancin complexes; type: binding; details: ratios (1:2, 1:10)
Experimental: The samples were prepared for analysis using the dried droplet technique. Spectra were obtained on a BRUKER FLEX III, tof mass spectrometer previously tuned and calibrated using standard bovine serum albumin, acquiring and averaging spectra generated by 200 laser shots. Matrix: 9 parts of DHB-9 (2,5-dihydroxy-benzoic acid) saturated in acetonitrile/H2O (50:50), 1 part of sinapinic acid saturated in acetonitrile/H2O (50:50). 0.5 ul of sample solution and 0.5 ul of matrix solution were mixed and placed on the laser target.

Streptococcus pyogenes = test: Dalbavancin MIC of baseline pathogens; type: cell-based; details: baseline isolates, MITT
From the text: (§1) The most common pathogen was S. aureus.

Group B streptococcus = test: Dalbavancin MIC of baseline pathogens; type: cell-based; details: baseline isolates, MITT
From the text: as §1

S. aureus = test: Dalbavancin MIC of baseline pathogens; type: cell-based; details: baseline isolates, MITT
From the text: as §1

[2] = system: Miscellaneous Streptococcus and nontypeable strains; test: Dalbavancin MIC of baseline pathogens; type: cell-based; details: baseline isolates, MITT
From the text: as §1

[3] = Rat quantitative tissue distribution study; type: in vivo, Sprague-Dawley rats
Experimental: Quantitative tissue distribution studies were conducted to assess the tissue distribution of dalbavancin following a single IV infusion of dalbavancin to male rats.
All samples were analyzed by LSC.

rat albumin = rat albumin (Rattus norvegicus, UniProt P02770); test: Protein binding by ITC; details: pH 7.4
bacteria = details: cited from earlier work
Lys-D-Ala-D-Lactate = test: ITC, preliminary experiments; type: binding; details: absence of serum proteins
human albumin = human albumin (Homo sapiens, UniProt P02768); test: Protein binding by isothermal titration microcalorimetry (ITC); details: for Calculated percent Binding to Human albumin: albumin 6×10^−4 M assumed
Chain of human albumin (P02768 25-609): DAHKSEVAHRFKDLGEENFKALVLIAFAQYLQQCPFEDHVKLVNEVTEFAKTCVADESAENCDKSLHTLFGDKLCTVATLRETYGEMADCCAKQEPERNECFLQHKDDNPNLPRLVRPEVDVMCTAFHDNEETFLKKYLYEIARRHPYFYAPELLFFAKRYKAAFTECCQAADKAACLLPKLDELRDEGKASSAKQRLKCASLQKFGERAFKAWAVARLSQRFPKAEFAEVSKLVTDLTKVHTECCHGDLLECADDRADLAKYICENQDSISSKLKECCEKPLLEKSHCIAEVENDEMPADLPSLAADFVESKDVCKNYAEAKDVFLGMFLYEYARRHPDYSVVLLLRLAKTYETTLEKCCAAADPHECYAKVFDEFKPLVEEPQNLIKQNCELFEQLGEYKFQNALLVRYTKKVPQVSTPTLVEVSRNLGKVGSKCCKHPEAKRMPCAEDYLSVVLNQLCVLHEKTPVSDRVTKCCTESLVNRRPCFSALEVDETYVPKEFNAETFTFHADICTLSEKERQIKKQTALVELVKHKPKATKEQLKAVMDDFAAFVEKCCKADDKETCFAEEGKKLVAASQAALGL

Chain of dog albumin (P49822 25-608): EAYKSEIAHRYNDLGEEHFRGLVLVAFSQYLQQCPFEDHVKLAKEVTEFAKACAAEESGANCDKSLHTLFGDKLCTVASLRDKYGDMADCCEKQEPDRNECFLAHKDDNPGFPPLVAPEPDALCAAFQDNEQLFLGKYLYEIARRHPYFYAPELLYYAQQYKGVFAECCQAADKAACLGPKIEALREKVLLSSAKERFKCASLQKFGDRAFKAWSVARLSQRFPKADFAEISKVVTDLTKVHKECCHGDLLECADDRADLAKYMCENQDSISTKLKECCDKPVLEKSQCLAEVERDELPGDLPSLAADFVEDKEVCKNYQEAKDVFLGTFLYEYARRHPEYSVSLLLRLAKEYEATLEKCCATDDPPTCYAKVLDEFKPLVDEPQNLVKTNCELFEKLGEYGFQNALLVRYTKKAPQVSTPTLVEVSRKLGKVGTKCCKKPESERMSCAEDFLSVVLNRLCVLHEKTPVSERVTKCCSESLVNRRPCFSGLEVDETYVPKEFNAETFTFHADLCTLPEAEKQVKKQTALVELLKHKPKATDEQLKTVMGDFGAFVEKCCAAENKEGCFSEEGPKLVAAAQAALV
Chain of rat albumin (P02770 25-608): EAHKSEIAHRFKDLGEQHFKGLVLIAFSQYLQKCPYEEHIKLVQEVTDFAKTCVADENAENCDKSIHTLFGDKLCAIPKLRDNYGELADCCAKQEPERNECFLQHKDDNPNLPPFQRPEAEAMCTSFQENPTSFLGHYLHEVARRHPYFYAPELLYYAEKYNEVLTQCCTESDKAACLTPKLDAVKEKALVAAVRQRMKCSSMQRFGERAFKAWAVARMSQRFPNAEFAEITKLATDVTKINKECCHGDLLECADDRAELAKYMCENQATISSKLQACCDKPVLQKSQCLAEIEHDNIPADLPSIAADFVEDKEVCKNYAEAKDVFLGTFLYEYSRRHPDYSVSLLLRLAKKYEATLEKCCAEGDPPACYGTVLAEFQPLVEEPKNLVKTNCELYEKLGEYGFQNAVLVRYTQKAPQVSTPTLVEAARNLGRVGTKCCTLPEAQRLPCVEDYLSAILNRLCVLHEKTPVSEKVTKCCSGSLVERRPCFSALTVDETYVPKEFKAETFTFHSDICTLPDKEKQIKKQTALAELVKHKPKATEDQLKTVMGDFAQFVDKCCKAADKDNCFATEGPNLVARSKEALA
Chain of HSA (P02768 25-609): as the sequence (P02768 25-609) above

CN[C@H]1C(=O)N[C@@H]2Cc3ccc(cc3)Oc3cc4cc(c3O[C@@H]3O[C@H](C(=O)O)[C@@H](O)[C@H](O)[C@H]3NC(=O)CCCCCCCCC(C)C)Oc3ccc(cc3Cl)[C@@H](O)[C@@H]3NC(=O)[C@H](NC(=O)[C@@H]4NC(=O)[C@@H](NC2=O)c2cc(cc(O)c2Cl)Oc2cc1ccc2O)c1ccc(O)c(c1)-c1c(O[C@H]2O[C@H](CO)[C@@H](O)[C@H](O)[C@@H]2O)cc(O)cc1[C@@H](C(=O)NCCCN(C)C)NC3=O [Dalbavancin]
Apparent binding affinity Ka (dog albumin; 25° C.): 0.62 (±0.09) ×10^5 M^−1
Apparent binding affinity Ka (dog albumin; 37° C.): 0.50 (±0.13) ×10^5 M^−1
AURC (cumulative amount excreted in urine) ([1]; Mean, single 1000 mg IV): 419 mg
CL ([1]; Mean, single 1000 mg IV): 0.0431 ± 0.0074 L/h
CLR ([1]; Mean, single 1000 mg IV): 0.018 L/h
Vz ([1]; Mean, single 1000 mg IV): 16.0 L
CLR ([1]; Min, single 1000 mg IV): 0.0130 L/h
Peak concentration of dalbavancin in man ([1]; conversion of approximately 300 mg/L): 165 µM
Peak plasma concentrations ([1]; immediately following end of infusion, single 1000 mg IV): approximately 300 mg/L
Plasma concentrations maintained for at least seven days ([1]; single intravenous infusion of 1000 mg): above 45 mg/l
Success rate by pathogen: Total organisms (Gram-positive pathogen; single-dose 1100 mg): 7/16 (43.8%)
Success rate by pathogen: Total organisms (Gram-positive pathogen; two-dose 1000/500 mg): 14/16 (87.5%)
Microbiologic success rate (by patient) (Gram-positive pathogen; EOT, single-dose 1100 mg): 5/14 (35.7) %
Microbiologic success rate (by patient) (Gram-positive pathogen; EOT, two-dose 1000/500 mg): 10/13 (76.9) %
Microbiologic success rate (by patient) (Gram-positive pathogen; FU, single-dose 1100 mg): 3/14 (21.4) %
Microbiologic success rate (by patient) (Gram-positive pathogen; FU, two-dose 1000/500 mg): 9/13 (69.2) %
Microbiologic success rates, summary over both visits (EOT, FU) (Gram-positive pathogen; microbiologically-evaluable and MITT populations, single dose of dalbavancin): < 40%
Eradication/presumed eradication rate, all organisms (Gram-positive pathogen; single-dose dalbavancin): 58.3% and 58%
Eradication/presumed eradication rate, all organisms (Gram-positive pathogen; two-dose dalbavancin): 92.3% and 92%
Activity relative to teicoplanin or vancomycin (streptococci): better activity against streptococci, including penicillin-resistant strains, than teicoplanin or vancomycin
Complex with HSA at very high dalbavancin to protein ratios (HSA): complexes containing 2 molecules of dalbavancin per protein molecule can be observed
Dalbavancin MIC (Streptococcus pyogenes; standard of care arm): 1 (0.016) mg/L
Dalbavancin MIC (Streptococcus pyogenes; two-dose arm): 1 (0.016) mg/L
Dalbavancin MIC (Group B streptococcus; standard of care arm): 2 (0.016) mg/L
Dalbavancin MIC (Group B streptococcus; two-dose arm): 2 (0.016) mg/L
Dalbavancin MIC (S. aureus; single-dose arm (N = 14)): 13 (0.12) mg/L
Dalbavancin MIC range (S. aureus; standard of care arm (N = 14)): 10 (0.016-0.25) mg/L
Dalbavancin MIC (S. aureus; two-dose arm (N = 13)): 11 (0.12) mg/L
Dalbavancin MIC ([2]; single-dose arm): 3 (0.016) mg/L
Dalbavancin MIC ([2]; standard of care arm): 4 (0.016) mg/L
Dalbavancin MIC ([2]; two-dose arm): 2 (0.016) mg/L
Dose recovered in the bile ([3]; bile duct cannulated rats, over 384 h after the dose): ~11 % of the dose
Concentrations of radioactivity in the CNS ([3]; healthy rats): low but detectable
Time by which all tissues had quantifiable drug-derived radioactivity ([3]; male rats, single IV infusion 20 mg/kg): ≤ 12 h
Skin penetration: drug-derived radioactivity in skin relative to plasma ([3]; rats): as high as or higher than in plasma
Tissue accumulation ([3]; rats, through 70 days): did not accumulate in any single tissue, organ, or blood cellular component
Apparent binding affinity Ka (rat albumin; 25° C.): 3.1 (±0.5) ×10^5 M^−1
Apparent binding affinity Ka (rat albumin; 37° C.): 2.8 (±1.8) ×10^5 M^−1
Concentrations known to be bactericidal (bacteria): 4 to 32 mg/L
Binding to Lys-D-Ala-D-Lactate (Lys-D-Ala-D-Lactate): no evidence of binding
Apparent binding affinity Ka (human albumin; 37° C., pH 7.4): 1.33 (±0.15) ×10^5 M^−1
Binding stoichiometry N (protein to dalbavancin) (human albumin; ITC fit, in all cases (all proteins tested), FIG. 2): < 1
Binding to human serum albumin (human albumin; across 1-500 μM dalbavancin): exceeds 98%
Calculated percent Binding to Human albumin (human albumin; antibiotic 1 μM): 98.8%
Calculated percent Binding to Human albumin (human albumin; antibiotic 10 μM): 98.8%
Calculated percent Binding to Human albumin (human albumin; antibiotic 100 μM): 98.7%
Calculated percent Binding to Human albumin (human albumin; antibiotic 165 μM): 98.6%
Calculated percent Binding to Human albumin (human albumin; antibiotic 250 μM): 98.5%
Calculated percent Binding to Human albumin (human albumin; antibiotic 500 μM): 98.0%
Binding stoichiometry antibiotic:protein (human albumin; binding stoichiometry modeling of ITC data): two dalbavancin molecules are bound to one molecule of protein
Free fraction (human albumin; human): ~1%
